Entries after “also recorded” stand apart in the source; their conditions may differ.
Tests used:
[1] = ASCOT participants, atorvastatin 10 mg/day vs placebo, baseline vs 1 year
serum miR-122 [2] = settings: ASCOT participants (n=155), atorvastatin 10 mg/day vs placebo, baseline vs 1 year
serum miR-122 [3] = test: Statin treatment of mice: serum miR-122; settings: C57BI/6 mice, 20 mg/kg atorvastatin intraperitoneally once a day for five days
miR-122 = test: AntagomiR treatment of mice: liver miR-122 by Northern blotting and quantitative PCR; type: in vivo; settings: mouse liver
Experimental: (§1) Liver and serum samples were harvested for analysis.
MiRNA expression was assessed by Northern blot analysis as previously described (Suárez, Circ Res 2007, 100: 1164-73). Briefly, total RNA (5 μg) was separated on a 15% acrylamide TBE 8M urea gel and blotted onto a Hybond N+ nylon filter (Amersham Biosciences). […] ATP and […] polynucleotide kinase (New England Biolabs) to generate high-specific activity probes. Hybridization was carried out according to the ExpressHyb (Clontech) protocol. Following overnight membrane hybridization with specific radiolabeled probes, membranes were washed once for 30 min at 42° C. in 4×SSC/0:5% SDS and subjected to autoradiography. Blots were re-probed for 5S rRNA to control for equal loading: 5′-[…]-3′
Total RNA was isolated from liver and hepatocyte samples using TRIzol reagent (Invitrogen) according to the manufacturer's protocol. For mRNA quantification, cDNA was synthesized using iScript RT Supermix (Bio-Rad), following the manufacturer's protocol. qRT-PCR analysis was performed in triplicate using iQ SYBR green Supermix (BioRad) on an iCycler Real-Time Detection System (Eppendorf). […] For miRNA quantification, total RNA was reverse transcribed using the miScript II RT Kit (Qiagen). […] 1 μg of total RNA was reverse transcribed and gene/miRNA expression assessed as above.

miR-33 = test: AntagomiR treatment of mice: hepatic miR-33 expression; type: in vivo; settings: mouse liver, antagomiR-122 vs control antagomiRs, 65 mg/kg i.p. x3 days, day 7
Experimental: as §1
(§2) Total RNA was isolated from liver and hepatocyte samples using TRIzol reagent (Invitrogen) according to the manufacturer's protocol. For mRNA quantification, cDNA was synthesized using iScript RT Supermix (Bio-Rad), following the manufacturer's protocol. qRT-PCR analysis was performed in triplicate using iQ SYBR green Supermix (BioRad) on an iCycler Real-Time Detection System (Eppendorf). The mRNA level was normalized to GAPDH or 18S as a house keeping gene (see primer sequence in Table 2). For miRNA quantification, total RNA was reverse transcribed using the miScript II RT Kit (Qiagen). […] For mouse tissues, total liver RNA from WT mice fed a HFD were isolated using the Bullet Blender Homogenizer (Next Advance) in TRIzol. 1 μg of total RNA was reverse transcribed and gene/miRNA expression assessed as above.

[4] = AntagomiR treatment of mice: serum cholesterol; type: in vivo; settings: antagomiR-122 vs control antagomiRs, 65 mg/kg i.p. x3 days, day 7
Experimental: as §1
Blood samples were collected by retro-orbital venous plexus puncture after a 12 h overnight fast for lipid analysis. Plasma was separated by centrifugation and stored at 4° C. Total and HDL cholesterol in each sample was enzymatically measured using the T-Cholesterol and HDL-C Assay Kits (Wako Diagnostics).

[5] = tested on: genes implicated in cholesterol and lipid metabolism (ACC1, CTP1, FAS, SCD1, MTTP, SREBP1); test: AntagomiR treatment of mice: liver expression of genes implicated in cholesterol and lipid metabolism (qRT-PCR); type: in vivo; settings: mouse liver mRNA, antagomiR-122 65 mg/kg i.p. x3 days, day 7
Experimental: as §1, §2

hepatitis C virus = settings: 36 patients with chronic hepatitis C genotype 1 infection, Phase 2a (Janssen, N Engl J Med 2013); cited from earlier work

Compound: CC(C)c1c(C(=O)Nc2ccccc2)c(-c2ccccc2)c(-c2ccc(F)cc2)n1CC[C@@H](O)C[C@@H](O)CC(=O)O [atorvastatin]
- total cholesterol [1]: concordant reduction
- serum miR-122 levels (serum miR-122 [2]): reduced circulating miR-122 levels; also recorded: concordant reduction
- serum miR-122 (serum miR-122 [3]): reduction of miR-122; also recorded: reduced serum miR-122

Compound: C*A*AACACCAUUGUCACACU*C*C*A*Chol*-T [antagomiR-122]
- liver miR-122 expression (miR-122; Northern blotting / qPCR, 65 mg/kg i.p. on three consecutive days, day 7, n=5 per group, 65 mg/kg): almost complete inhibition of miR-122 expression; also recorded: reduction of liver miR-122
- relative amount of miR-122 in antagomiR-122 group (miR-122; quantitative PCR, 65 mg/kg intraperitoneally on three consecutive days, sacrificed at day 7, vs control antagomiRs, mean (standard deviation)): 0.13%+/−0.06%
- hepatic expression of miR-33 (miR-33): attenuated; also recorded: reduction of miR-33
- serum cholesterol concentration [4]: lower cholesterol levels; also recorded: reduction in serum cholesterol concentration
- expression of genes implicated in lipid metabolism (de novo lipogenesis and lipoprotein assembly) [5]: down-regulation of enzymes implicated in lipid metabolism

Compound: miravirsen
- hepatitis C virus RNA levels (hepatitis C virus): reduced hepatitis C virus RNA levels in a dose-dependent manner

Source: patent US20190010547A1 (Medizinische Universität Innsbruck, priority 2015, published 2019)
